SMILES strings stand for the structures. Active and inactive are the calls of the source. The rule behind the calls is not given here.

Data set [1] concerns Mus musculus. Kind of data set: Downregulation of Ki67 expression in BALB/c mouse allografted with mouse Panc02 cells […] at 100 mg/kg, ip administered every day measured after 20 days by immunohistochemical analysis. Format: functional, organism-based. The following applies: time 20.0 day.
Data set [2] can be described thus: Toxicity in BALB/c mouse allografted with mouse Panc02 cells assessed as effect on body weight at 100 mg/kg, ip administered every day measured after 19 days. The format is organism-based. The following applies: in vivo, 456 h, time 19 day.
The subject of a further data set is Panc02. Kind of data set: Antitumor activity against mouse Panc02 allografted in BALB/c mouse assessed as reduction in tumor weight at 100 mg/kg, ip administered every day for 20 days relative to control. Format: functional. The following applies: 480 h, time 20 day, read-out: TGI.
Data set [3] has as its system Mus musculus. As to the kind of experiment: Upregulation of caspase 3 in BALB/c mouse allografted with mouse Panc02 cells […] at 100 mg/kg, ip administered every day measured after 20 days by immunohistochemical analysis. The format is functional, organism-based. The following applies: time 20.0 day.
Data set [4] has as its target T1, Bromodomain-containing protein 4 (Homo sapiens, UniProt O60885). Kind of data set: Inhibition of BRD4 (unknown origin) at 1 uM preincubated for 15 mins followed by substrate addition and measured after 1 hr by AlphaScreen assay relative to control. The following applies: time 75.0 min.
The next data set relates to BXPC-3. As to the kind of experiment: Antiproliferative activity against human BXPC-3 cells assessed as cell growth inhibition at 2 uM measured after 48 to 72 hrs by MTT assay relative to control. The format is functional. The following applies: time 48-72 hrs, read-out: GI. (Tetrazolium dyes change colour on reduction, which living cells bring about.)
For another data set, the system named is SMMC-7721. As to the kind of experiment: Antiproliferative activity against human SMMC-7721 cells assessed as cell growth inhibition at 2 uM measured after 48 to 72 hrs by MTT assay relative to control. The following applies: time 48-72 hrs, read-out: GI. Format: functional.
Data set [5] concerns the target T1, Bromodomain-containing protein 4. Kind of data set: Inhibition of BRD4 (unknown origin) preincubated for 15 mins followed by substrate addition and measured after 1 hr by AlphaScreen assay relative to control. In general terms: Alpha assays give light when donor and acceptor beads are brought close together.
A further data set has as its system PANC-1. As to the kind of experiment: Antiproliferative activity against human PANC-1 cells assessed as cell growth inhibition at 2 uM measured after 48 to 72 hrs by MTT assay relative to control. Format: functional. The following applies: time 48-72 hrs, read-out: GI.

Take `Nc1ccn([C@@H]2O[C@H](CO)[C@@H](O)C2(F)F)c(=O)n1` [GEMCITABINE]: the result with Mus musculus [1] and in the data set on Mus musculus [3] was Active. In [2], the Activity entry is listed as “Non-Toxic”. For the same molecule, the inhibition in vivo at 100 mg/kg in the data set on Panc02 worked out at 70%.

A word on the inhibition: it is the drop in the measured response relative to a control, in per cent. The low end stands for a weak effect, the high end for a strong effect. As usually defined, the IC50 is the concentration that inhibits the measured activity by half. Low values mean greater potency, high ones weaker potency. `CCS(=O)(=O)c1ccc(Oc2cc(-c3c(C)noc3C)ccc2OC)c(-c2cn(C)c(=O)c3cncn23)c1` gave an inhibition in [4] of 99.9%. Further, the inhibition of growth at 2 µM in the data set with BXPC-3 is 42.2%; with SMMC-7721, 18.4%; in the data set with PANC-1 it was 16.2%. Besides, the midpoint of inhibition in data set [5], the IC50, lay at 56 nM.

On to `CCS(=O)(=O)c1ccc(Oc2cc(-c3c(C)noc3C)ccc2Cl)c(-c2cn(C)c(=O)c3cncn23)c1`, for which the inhibition in [4] worked out at 86.3%.

`CCS(=O)(=O)c1ccc(Oc2cc(F)c(F)c(F)c2)c(-c2cn(C)c(=O)c3cncn23)c1` came in with an inhibition in data set [4] of 40.1%.

In the case of `CCS(=O)(=O)c1ccc(Oc2ccc(Cl)c(-c3c(C)noc3C)c2)c(-c2cn(C)c(=O)c3cncn23)c1`, in data set [4], the inhibition was 64.9%.

`CCS(=O)(=O)c1ccc(Oc2cccc(-c3c(C)noc3C)n2)c(-c2cn(C)c(=O)c3cncn23)c1`: in [4], the inhibition stood at 70.2%.

In [4], `CCS(=O)(=O)c1ccc(Oc2cccc(-c3c(C)noc3C)c2)c(-c2cn(C)c(=O)c3cncn23)c1` returned an inhibition of 93.2%. The inhibition of growth at 2 µM in the data set with BXPC-3 is 41.2%; in the data set on SMMC-7721 it was 18.2%; with PANC-1 it was 21.6%. Further, the half-maximal inhibitory concentration (IC50) in [5] worked out at 435 nM.

Regarding `CCS(=O)(=O)c1ccc(Oc2cc(-c3c(C)noc3C)ccc2C)c(-c2cn(C)c(=O)c3cncn23)c1`, the inhibition in [4] was determined as 95.2%. Also, the inhibition of growth at 2 µM is 30.2% with BXPC-3, 11.4% with SMMC-7721 and 20.6% in the data set with PANC-1. The IC50 in data set [5] turned out to be 261 nM.

On to `CCS(=O)(=O)c1ccc(Oc2ccc(F)c(-c3c(C)noc3C)c2)c(-c2cn(C)c(=O)c3cncn23)c1`, for which the inhibition in [4] is 78.1%.

For `CCS(=O)(=O)c1ccc(Oc2ccc(C)c(-c3c(C)noc3C)c2)c(-c2cn(C)c(=O)c3cncn23)c1`, in data set [4], the inhibition amounted to 96.5%. For the same molecule, the figures for the inhibition of growth at 2 µM in the data set on BXPC-3, in the data set with SMMC-7721 and in the data set on PANC-1 were 35.8%, 19.9% and 23.7%, respectively. Besides, in [5], the IC50 stood at 254 nM.

In data set [4], `Cc1sc2c(c1C)C(c1ccc(Cl)cc1)=N[C@@H](CC(=O)C(C)(C)C)c1nnc(C)n1-2` yielded an inhibition of 99.5%. Further, the inhibition of growth at 2 µM in the data set with BXPC-3 stood at 31.1%; in the data set with SMMC-7721 it was 12.2%; with PANC-1 it was 17.1%. Moreover, in data set [5], the midpoint of inhibition, the IC50, lay at 88 nM.

Molecule `Cc1noc(C)c1-c1cccc(Oc2ccc(S(C)(=O)=O)cc2-c2cn(C)c(=O)c3cncn23)c1` yielded an inhibition in [4] of 62.7%.

With `CCS(=O)(=O)c1ccc(Oc2cc(-c3c(C)noc3C)ccc2F)c(-c2cn(C)c(=O)c3cncn23)c1`, in data set [4], the inhibition came out at 99.5%. Moreover, the inhibition of growth at 2 µM in the data set on BXPC-3 turned out to be 33.2%; in the data set on SMMC-7721 it was 21.3%; with PANC-1, 19.6%. For the same molecule, 152 nM corresponded to half-maximal inhibition in [5] (IC50).

Turning to `CCS(=O)(=O)c1ccc(Oc2cc(-c3c(C)noc3C)ccc2C#N)c(-c2cn(C)c(=O)c3cncn23)c1`, in data set [4], the inhibition was found to be 31.2%.

Source of the values: ChEMBL document CHEMBL4673289, “Design, synthesis and biological evaluation of imidazolopyridone derivatives as novel BRD4 inhibitors” (Bioorg Med Chem, 2021).
